Data on 22 compounds can be found in patent US5578620A, “Thiazolidine and oxazolidine derivatives, their preparation and their medical use” (Sankyo Company, Limited, priority 1994, dated 1996).

The subject of series [1] is blood glucose level (BGL). The series can be described thus: Hypoglycemic activity (blood glucose lowering rate) in hyperglycemic KK mice. Particulars: Mus musculus, oral, 18 hours. It counts as in vivo, male mice of the KK strain. As for the experimental part:
The test animals used were hyperglycemic male mice of the KK strain, each having a body weight more than 40 g. Each animal was orally administered a test compound in the amount shown in the following Table 8 and then allowed to feed freely for 18 hours. At the end of this time, blood was collected from the tail veins without anesthesia. The blood glucose level (BGL) was determined by means of a glucose analyzer (GL-101, manufactured by Mitsubishi Kasei Co. or Glucoroder manufactured by Shino Test Co.).
The blood glucose lowering rate was calculated by the following equation:
Blood glucose lowering rate (%)=
BGLs is the BGL in the group administered a solvent only, but no active compound; and
BGLt is the BGL in the group administered a test compound.
The results are shown in the following Table 8, in which each compound of the present invention is identified by the number of one of the following Examples in which its preparation is illustrated.

Series [2] is described as follows: Toxicity, oral administration for 2 weeks. The class given is in vivo, male F344 rats. To be noted: 50 mg/kg; for mortality rate: male F344 rats, oral, 2 weeks. As for the experimental part: The toxicity of the compounds of the present invention was tested on male F344 rats, divided into groups of 5. The test compound was adminstered orally to each test animal at a dose of 50 mg/kg of body weight for 2 weeks. The test compounds used were those of Examples 20, 45 (polar, less polar) and 47 (polar).

The target in series [3] is T1, Bovine lens aldose reductase (Bos taurus, UniProt P16116).
T1 construct: Bovine lens aldose reductase was separated and partially purified; from tissue; host or cells: bovine lens
The series can be described thus: Inhibition of Aldose reductase. It counts as biochemical. To be noted: for inhibition at 5 µg/mL: read-out: Inhibition at 5 μg/ml. As to the method: Bovine lens aldose reductase was separated and partially purified by the method of S. Hyman and J. H. Kinoshita [J. Biol. Chem., 240, 877 (1965)] and K. Inagaki, I. Miwa and J. Okuda [Arch. Biochem. Biophys., 316, 337 (1982)], and its activity was determined photometrically by the method of Varma et al. [Biochem. Pharmac., 25, 2505 (1976)]. […]

In series [1], `CC(COc1ccc(CC2SC(=O)NC2=O)cc1)NCC(O)COCc1ccccc1` (stereo not shown) [Example 15, 5-{4-[2-(3-Benzyloxy-2-hydroxypropylamino)propoxy]benzyl}thiazolidine-2,4-dione] came in with an inhibition in vivo at 1 mg/kg of 19.1%.

Compound `CC(COc1ccc(CC2SC(=O)NC2=O)cc1)N1CC(COc2cccc(Cl)c2)OC1=S` (single isomer, unassigned) [Example 45 (less polar), 5-{4-[2-(5-3'-Chlorophenoxymethyl-2-thioxooxazolidin-3-yl)propoxy]benzyl}thiazolidine-2,4-dione] yielded an inhibition in vivo at 1 mg/kg in series [1] of 27.2%. In addition, the mortality rate result in series [2] was “zero”. Besides, in series [2] (rat, in vivo, po), the “abnormalities observed during 2 successive weeks” value is “no abnormalities which could be attributed to the test coumpounds” and the “hematological examinations (red blood cell counts)” value is “slighly decrease in red blood cell counts”.

In series [1], `CC(C)C(COc1ccc(CC2SC(=O)NC2=O)cc1)N1CC(COc2cccc(Cl)c2)OC1=O` (stereo not shown) [51 (polar), 5-{4-[2-(5-3'-Chlorophenoxymethyl-2-oxooxazolidin-3-yl)-3-methylbutoxy]benzyl}thiazolidine-2,4-dione] registered an inhibition in vivo at 1 mg/kg of 20.8%.

As to `CC(COc1ccc(CC2SC(=O)NC2=O)cc1)N1CC(COc2ccc(-c3ccccc3)cc2)OC1=S` (stereo not shown) [36 (polar), 5-{4-[2-(5-4'-Phenylphenoxymethyl-2-thioxooxazolidin-3-yl)propoxy]benzyl}thiazolidine-2,4-dione], the inhibition in vivo at 1 mg/kg in series [1] is 13.7%.

With `C[C@@H](COc1ccc(CC2SC(=O)NC2=O)cc1)N1C[C@@H](COc2cccc(Cl)c2)OC1=O` (stereo partly drawn) [Example 13, 5-[4-{2(S)-[5(S)-(3-Chlorophenoxymethyl)-2-oxooxazolidin-3-yl]propoxy}benzyl]thiazolidine-2,4-dione], in series [1], the inhibition in vivo at 1 mg/kg is 29.9%.

With `CC(COc1ccc(CC2SC(=O)NC2=O)cc1)NCC(O)COCc1cccc(Cl)c1` (stereo not shown) [Example 41, 5-{4-[2-(3-3'-Chlorobenzyloxy-2-hydroxypropylamino)propoxy]benzyl}thiazolidine-2,4-dione], in series [1], the inhibition in vivo at 1 mg/kg came out at 18.2%. Moreover, in series [3], 6.68 µM corresponded to half-maximal inhibition (IC50) and the inhibition at 5 µg/mL amounted to 57.4%.

For `CCC(COc1ccc(CC2SC(=O)NC2=O)cc1)N1CC(COc2cccc(Cl)c2)OC1=O` (stereo not shown) [47 (polar), 5-{4-[2-(5-3'-Chlorophenoxymethyl-2-oxooxazolidin-3-yl)butoxy]benzyl}thiazolidine-2,4-dione], 1 mg/kg produced 34.7% inhibition in vivo in series [1]. In series [2], the mortality rate entry is on record as “zero”. In addition, the “abnormalities observed during 2 successive weeks” value in series [2] (rat, in vivo, po) is “no abnormalities which could be attributed to the test coumpounds”. Besides, in series [3], the IC50 was 0.455 µM and the inhibition at 5 µg/mL is 86.6%.

For the compound `O=C1NC(=O)C(Cc2ccc(OCCN3CC(COc4cccc(Cl)c4)OC3=O)cc2)S1` (stereo not shown) [Example 6, 5-{4-[2-(5-3'-Chlorophenoxymethyl-2-oxooxazolidin-3-yl)ethoxy]benzyl}thiazolidine-2,4-dione], the inhibition in vivo at 1 mg/kg in series [1] worked out at 19.2%.

Take `CC(COc1ccc(CC2SC(=O)NC2=O)cc1)NCC(O)COCCc1ccccc1` (stereo not shown) [Example 18, 5-{4-[2'-(3-2'-phenylethoxy-2-hydroxypropylamino)propoxy]benzyl}thiozolidine-2,4-dione]: testing at 1 mg/kg in series [1] gave an inhibition in vivo of 10.5%.

The compound `CC(COc1ccc(CC2SC(=O)NC2=O)cc1)NCC(O)Cc1ccccc1` (stereo not shown) [Example 7, 5-{4-[2-(3-Phenyl-2-hydroxypropylamino)propoxy]benzyl}thiazolidine-2,4-dione] registered an inhibition in vivo at 1 mg/kg in series [1] of 36.3%.

Turning to `CC(COc1ccc(CC2SC(=O)NC2=O)cc1)N1CC(COc2cccc(Cl)c2)OC1=O` (stereo not shown) [Example 1, 5-{4-[2-(5-3'-Chlorophenoxymethyl-2-oxooxazolidin-3-yl)propoxy]benzyl}thiazolidine-2,4-dione], the inhibition in vivo at 1 mg/kg in series [1] is 28.5%. In series [3], the midpoint of inhibition, the IC50, lay at 0.224 µM and the inhibition at 5 µg/mL was found to be 89.6%.

Compound `CC(COc1ccc(CC2SC(=O)NC2=O)cc1)N1CC(COc2cccc(Cl)c2)OC1=S` (stereo not shown) [45 (polar), 5-{4-[2-(5-3'-Chlorophenoxymethyl-2-thioxooxazolidin-3-yl)propoxy]benzyl}thiazolidine-2,4-dione] gave an inhibition in vivo at 1 mg/kg in series [1] of 23.9%. In addition, the mortality rate entry in series [2] is given as “zero”. Further, the “abnormalities observed during 2 successive weeks” value in series [2] (rat, in vivo, po) is “no abnormalities which could be attributed to the test coumpounds”.

With `CCCC(COc1ccc(CC2SC(=O)NC2=O)cc1)N1CC(COc2cccc(Cl)c2)OC1=O` (single isomer, unassigned) [Example 50 (less polar), 5-{4-[2-(5-3'-Chlorophenoxymethyl-2-oxooxazolidin-3-yl)pentyloxy]benzyl}thiazolidine-2,4-dione], the inhibition in vivo at 1 mg/kg in series [1] turned out to be 17.5%.

As to `CC(COc1ccc(CC2SC(=O)NC2=O)cc1)NCC(O)COCCCCc1ccccc1` (stereo not shown) [Example 19, 5-{4-[2-(3-4'-Phenylbutoxy-2-hydroxypropylamino)propoxy]benzyl}thiazolidine-2,4-dione], the inhibition in vivo at 1 mg/kg in series [1] was found to be 15.8%. In series [3], the concentration for half-maximal inhibition (IC50) is 8.01 µM and the inhibition at 5 µg/mL was determined as 56.1%.

Take `C[C@H](COc1ccc(CC2SC(=O)NC2=O)cc1)N1C[C@@H](COc2cccc(Cl)c2)OC1=O` (stereo partly drawn) [Example 11, 5-[4-{2(R)-[5(S)-(3-Chlorophenoxymethyl)-2-oxooxazolidin-3-yl]propoxy}benzyl]thiazolidine-2,4-dione]: in series [1], the inhibition in vivo at 1 mg/kg worked out at 24.3%.

Regarding `CC(COc1ccc(CC2SC(=O)NC2=O)cc1)N1CC(COCCCCCCCCc2ccccc2)OC1=O` (stereo not shown) [Example 28, 5-{4-[2-(5-8'-Phenyloctyloxymethyl-2-oxooxazolidin-3-yl)propoxy]benzyl}thiazolidine-2,4-dione], at 1 mg/kg the inhibition in vivo in series [1] was 13.6%.

Consider `CC(COc1ccc(CC2SC(=O)NC2=O)cc1)N1CC(COCc2ccccc2)OC1=O` (stereo not shown) [Example 22, 5-{4-[2-(5-Benzyloxymethyl-2-oxooxazolidin-3-yl)propoxy]benzyl}thiazolidine-2,4-dione], for which, in series [1], testing at 1 mg/kg gave an inhibition in vivo of 14.3%. In series [3], inhibition was half-maximal at 3.61 µM (IC50) and the inhibition at 5 µg/mL was determined as 70.1%.

For `COc1ccc(OCC2CN(C(C)COc3ccc(CC4SC(=O)NC4=O)cc3)C(=O)O2)cc1` (single isomer, unassigned) [31 (less polar), 5-{4-[2-(5-4'-Methoxyphenoxymethyl-2-oxooxazolidin-3-yl)propoxy]benzyl}thiazolidine-2,4-dione], in series [1], the inhibition in vivo at 1 mg/kg was found to be 21.6%. In series [3], 3.91 µM corresponded to half-maximal inhibition (IC50) and the inhibition at 5 µg/mL turned out to be 67.8%.

In series [1], `CC(COc1ccc(CC2SC(=O)NC2=O)cc1)NCC(O)COCCCCCCc1ccccc1` (stereo not shown) [Example 20, 5-{4-[2-(3-6'-Phenylhexyloxy-2-hydroxypropylamino)propoxy]benzyl}thiazolidine-2,4-dione] yielded an inhibition in vivo at 1 mg/kg of 37.9%. Also, the mortality rate result in series [2] was “zero”. Also, in series [2] (rat, in vivo, po), the “abnormalities observed during 2 successive weeks” value is listed as “no abnormalities which could be attributed to the test coumpounds”. Besides, in series [3], inhibition was half-maximal at 3.5 µM (IC50) and the inhibition at 5 µg/mL is 69.1%.

In series [1], `CC(COc1ccc(CC2SC(=O)NC2=O)cc1)N1CC(COCCCCCCCc2ccccc2)OC1=O` (stereo not shown) [Example 29, 5-{4-[2-(5-7'-Phenylheptyloxymethyl-2-oxooxazolidin-3-yl)propoxy]benzyl}thiazolidine-2,4-dione] had an inhibition in vivo at 1 mg/kg of 18.1%.

Take `CC(COc1ccc(CC2SC(=O)NC2=O)cc1)N1CC(COc2ccc(-c3ccccc3)cc2)OC1=O` (stereo not shown) [Example 35, 5-{4-[2-(5-4'-Phenylphenoxymethyl-2-oxooxazolidin-3-yl)propoxy]benzyl}thiazolidine-2,4-dione]: at 1 mg/kg the inhibition in vivo in series [1] was 13.5%.

For the compound `CC(COc1ccc(CC2SC(=O)NC2=O)cc1)N1CC(COCCc2ccccc2)OC1=O` (stereo not shown) [Example 23, 5-{4-[2-(5-2'-Phenylethoxymethyl-2-oxooxazolidin-3-yl)propoxy]benzyl}thiazolidine-2,4-dione], in series [3], the IC50 is 3.3 µM and the inhibition at 5 µg/mL came out at 70.7%.

What is called inhibition in vivo is the drop in the measured response relative to a control, in per cent. High values mean strong suppression, low ones little suppression. As usually defined, the IC50 is the concentration that gives 50% inhibition. High values mean a need for much substance, low ones inhibition by little substance.
